US11065244B2, “Methods of use of tetrahydroberberine (THB)” (DIGNITY HEALTH, priority 2010, dated 2021)

How the values were obtained:
[1] = biological target: T1, Kir6.1/SUR2B (Homo sapiens, UniProt O60706+Q15842); assay: Whole-cell voltage-clamp currents of KATP channel subtypes, vesicle type; type: cell-based; conditions: 100 μM perfused for 30 sec; currents at −100 mV; n=4
T1 construct: expressed in transfected cells
Procedure: (§1) Using whole-cell recordings in voltage-clamp mode, Command pulse protocol was set by the series test pulses with 100 ms duration that were applied between −100 and +50 mV in 10 mV steps from a holding potential of 0 mV (Top traces in FIG. 11, plots A-C). Representative effects of Ipt (100 μM perfused for 30 sec) on whole-cell current traces recorded from a cell expressed Kir6.2/SUR1 (A), Kir6.2/SUR2A (B) or Kir6.1/SUR2B (C). FIG. 11, plot D summarizes data for currents measured at −100 mV from A-C. Values are means±S.E.M. (n=4). *P<0.05, **P<0.01 vs. control.

[2] = biological target: T2, Kir6.2/SUR2A (Homo sapiens, UniProt O60706+Q14654); assay: Whole-cell voltage-clamp currents of KATP channel subtypes, cardiac type; type: cell-based; conditions: 100 μM perfused for 30 sec; currents at −100 mV; n=4
T2 construct: expressed in transfected cells
Procedure: as §1

[3] = biological target: vascular KATP channels (Kir6.1SRU2B) (Homo sapiens, UniProt O60706+Q15842); conditions: relevant low concentration; cited from earlier work
[4] = system: cardiac KATP channels (Kir6.1SUR2A); conditions: relevant low concentration; cited from earlier work
[5] = biological target: T3, Kir6.2SUR1 KATP channels (Homo sapiens, UniProt Q09428+Q14654); assay: Patch-clamp cell attached single-channel recording of transfected Kir6.2SUR1 channels in HEK-293 cells; type: cell-based; conditions: 100 μM; control as 1; THB 6 patches, Ipt 8 patches
T3 construct: expressed in transfected cells; host or cells: HEK-293
Procedure: In β-cells, the dominant subtype of KATP is the Kir 6.2SUR1 subtype, as earlier described. Cells transiently transfected with the KATP Kir 6.2SUR1 channel subtype were evaluated for membrane potential and action potential firing using cell-attached recording in the presence or absence of 100 μm THB (FIG. 8A).
To further determine the effects of THB and Ipt on pancreatic β-cell-type KATP channels, the inventor examined the effects of THB or Ipt on the transfected Kir6.2SUR1 KATP channels in HEK-293 cells.

[6] = biological target: T4, pancreatic β-cell KATP channels (Rattus norvegicus, UniProt P70673+Q09429); assay: Whole-cell KATP currents induced by ramp pulses in rat pancreatic β-cells; type: cell-based; conditions: 100 μM bath application; external glucose 5.5 mM; ramp −90 to −50 mV
T4 construct: Single Channel Currents of KATP Channels in Rat Pancreatic β-Cells; from tissue; host or cells: rat pancreatic β-cells
Procedure: To determine whether or not THB and Ipt can block pancreatic β-cell KATP channels, whole-cell currents induced by repetitive ramp pulses from −90 to −50 mV (at 0.2 Hz) were recorded in voltage-clamp mode (external glucose=5.5 mM).

[7] = biological target: T5, Kir6.2/SUR1 (Homo sapiens, UniProt Q09428+Q14654); assay: Whole-cell voltage-clamp currents of KATP channel subtypes, pancreatic type; type: cell-based; conditions: 100 μM perfused for 30 sec; currents at −100 mV; n=4
T5 construct: expressed in transfected cells
Procedure: as §1

[8] = biological target: T4, pancreatic β-cell KATP channels; assay: Inside-out patch single channel recording in rat pancreatic β-cells, ATP free solution; type: cell-based; conditions: bath-applied
[9] = system: rat pancreatic islets; assay: Insulin release from rat pancreatic islets; type: cell-based; conditions: 100 μM; 5.5 mM glucose external; from 22.5±1.2
Procedure: With 5.5 mM glucose in the external solution, basal insulin secretion was measured. […] Bath application of 100 μM THB increased insulin secretion from 22.5±1.2 to 39.4±1.5 pg/islet/min (FIG. 5; P<0.01; 6 cells) and 100 μM Ipt increased insulin secretion from 22.5±1.2 to 34.5±1.8 pg/islet/min (FIG. 11; P<0.05; 7 cells).

[10] = biological target: neuronal type and pancreatic type of KATP channels (Kir6.2SUR1) (Homo sapiens, UniProt Q09428+Q14654); conditions: relatively high concentrations; cited from earlier work
[11] = system: SNc DA neurons; assay: Perforated patch current-clamp recording of membrane potential and firing of dissociated SNc DA neurons, substance applied alone; type: cell-based, rat
Procedure: (§2) The protocol for preparation of single neurons from the rat SNc was approved by the Institutional Animal Care and Use Committee of the Barrow Neurological Institute. Single DA neurons were acutely dissociated from the SNc of 2-3-week-old Wistar rats following the protocol as previously described. Briefly, rats were anesthetized with isoflurane, and brain tissue was rapidly removed and immersed in cold (2-4° C.) dissection solution which contained: 136.7 mM NaCl, 5 mM KCl, 0.1 mM Na2HPO4, 0.2 mM KH2PO4, 9.84 mM HEPES, 16.6 mM D-glucose, 21.9 mM sucrose, pH 7.3, 330 mOsm, oxygenated with 100% O2 [8]. Three 400-μm coronal slices containing the SNc were cut using a vibrotome (Vibroslice 725M, WPI, Sarasota, Fla.). After cutting, slices were continuously bubbled with 95% O2-5% CO2 at room temperature (22±1° C.) for at least one hour in artificial cerebrospinal fluid (ACSF), which contained: 124 mM NaCl, 5 mM KCl, 24 mM NaHCO3, 1.3 mM MgSO4, 1.2 mM KH2PO4, 2.4 mM CaCl2, and 10 mM glucose, pH 7.4. Thereafter, slices were treated with pronase (1 mg per 6 ml) at 31° C. for 30 minutes in ACSF. The SNc was identified in a coronal slice using a stereo microscope with reference to the rat brain atlas, and was micro-punched out from slices using a well-polished needle. One punched piece was then transferred to a 35-mm culture dish filled with well-oxygenated standard extracellular solution, which contained: 150 mM NaCl, 5 mM KCl, 1 mM MgCl2, 2 mM CaCl2, 10 mM glucose 10, and 10 mM HEPES, pH 7.4 (with Tris-base). The punched piece was then dissociated mechanically using a fire-polished micro-Pasteur pipette under an inverted microscope (Olympus IX-70, Lake Success, N.Y.). The separated cells adhered to the bottom of the culture dish within 30 minutes. In the present study, we used only DA neurons that maintained their original morphological features of polygonal, large or medium somata with 2-4 thick primary dendritic processes were used.
Perforated patch whole-cell recording techniques were employed as previously described. Pipettes (3-5 MΩ) used for perforated patch recording were filled with intracellular recording solution containing 140 mM potassium gluconate, 10 mM KCl, 5 mM MgCl2, and 10 mM HEPES, pH 7.2 (with Tris-OH). The amphotericin B was freshly prepared to 200-240 μg/ml from a 40 mg/ml in DMSO stock. The liquid junction potential was 14 mV calculated using Clamplex 9.2 (Axon Instruments, Foster City, Calif.) and corrections were made for junction potentials post-hoc. After tight seal (>2 GΩ) formation, it usually took about 5-20 min to convert to perforated patch mode, and an access resistance of 20-60 MΩ was accepted to start the experiments. Series resistance was not compensated in this study. The data were filtered at 2 kHz, acquired at 10 kHz and digitized on-line (Digidata 1322 series A/D board, Axon Instruments, Foster City, Calif.). […] Drug application was performed using a computer-controlled “U-tube” system as previously described. All experiments were performed at room temperature (22±1° C.). To enable identification of single, dissociated SNc neurons after a patch-clamp recording session, the recording pipette was filled with a fluorescent dye (lucifer yellow CH, Sigma Chemical Co., St. Louis, Mo., 1.0 mg/ml in the recording electrode) in some experiments. After conversion from the perforated patch to the conventional whole-cell recording mode, the dye was ejected into the cytoplasm by a pulse (200 ms, 0.5 Hz) of hyperpolarizing current (1.0 nA) for 3 min. Labeled cells were visualized using epifluorescence microscopy. […]

[12] = system: D2 receptor and dopamine-opened K+ channels; assay: Dopamine-induced membrane potential hyperpolarization in dissociated SNc DA neurons; type: cell-based, rat
Procedure: All experiments were performed at room temperature (22±1° C.).

[13] = biological target: T6, KATP channels in SNc DA neurons (Rattus norvegicus, UniProt P70673+Q09429); assay: Perforated patch current-clamp recording of rotenone-opened KATP channels in dissociated SNc DA neurons; type: cell-based; conditions: for altered membrane potential (depolarization) on rotenone-opened KATP channels, analog comparison: 100 μM, 6 neurons, FIG. 4B; for altered membrane potential in the presence of rotenone: FIG. 5C
T6 construct: functional KATP channels natively expressed on midbrain dopamine neurons; from tissue; host or cells: acutely dissociated dopaminergic neurons of rat substantia nigra pars compacta
Procedure: as §2
Perforated patch whole-cell recording techniques were employed as previously described. Pipettes (3-5 MΩ) used for perforated patch recording were filled with intracellular recording solution containing 140 mM potassium gluconate, 10 mM KCl, 5 mM MgCl2, and 10 mM HEPES, pH 7.2 (with Tris-OH). The amphotericin B was freshly prepared to 200-240 μg/ml from a 40 mg/ml in DMSO stock. The liquid junction potential was 14 mV calculated using Clamplex 9.2 (Axon Instruments, Foster City, Calif.) and corrections were made for junction potentials post-hoc. After tight seal (>2 GΩ) formation, it usually took about 5-20 min to convert to perforated patch mode, and an access resistance of 20-60 MΩ was accepted to start the experiments. Series resistance was not compensated in this study. The data were filtered at 2 kHz, acquired at 10 kHz and digitized on-line (Digidata 1322 series A/D board, Axon Instruments, Foster City, Calif.). […] Drug application was performed using a computer-controlled “U-tube” system as previously described. All experiments were performed at room temperature (22±1° C.). To enable identification of single, dissociated SNc neurons after a patch-clamp recording session, the recording pipette was filled with a fluorescent dye (lucifer yellow CH, Sigma Chemical Co., St. Louis, Mo., 1.0 mg/ml in the recording electrode) in some experiments. After conversion from the perforated patch to the conventional whole-cell recording mode, the dye was ejected into the cytoplasm by a pulse (200 ms, 0.5 Hz) of hyperpolarizing current (1.0 nA) for 3 min. Labeled cells were visualized using epifluorescence microscopy.
Under physiological conditions, the KATP channels are mostly closed. However, in the acutely-dissociated single neurons from rat SNc, there is background opening of KATP channels. […]

[14] = biological target: T7, neuronal KATP channels (Rattus norvegicus, UniProt P70673+Q09429); assay: Rotenone-induced outward current in voltage-clamp mode in the presence of the D2 receptor antagonist sulpiride; type: cell-based; conditions: VH −30 mV, 6 neurons
T7 construct: functional KATP channels natively expressed on midbrain dopamine neurons; from tissue; host or cells: acutely dissociated dopaminergic neurons of rat substantia nigra pars compacta
Procedure: as §2, with “In the present study, we used only DA neurons that maintained their original morphological features of polygonal, large or medium somata with 2-4 thick primary dendritic processes were used.” left out
Perforated patch whole-cell recording techniques were employed as previously described. […] The liquid junction potential was 14 mV calculated using Clamplex 9.2 (Axon Instruments, Foster City, Calif.) and corrections were made for junction potentials post-hoc. […]

T6 sequence (P70673 whole entry): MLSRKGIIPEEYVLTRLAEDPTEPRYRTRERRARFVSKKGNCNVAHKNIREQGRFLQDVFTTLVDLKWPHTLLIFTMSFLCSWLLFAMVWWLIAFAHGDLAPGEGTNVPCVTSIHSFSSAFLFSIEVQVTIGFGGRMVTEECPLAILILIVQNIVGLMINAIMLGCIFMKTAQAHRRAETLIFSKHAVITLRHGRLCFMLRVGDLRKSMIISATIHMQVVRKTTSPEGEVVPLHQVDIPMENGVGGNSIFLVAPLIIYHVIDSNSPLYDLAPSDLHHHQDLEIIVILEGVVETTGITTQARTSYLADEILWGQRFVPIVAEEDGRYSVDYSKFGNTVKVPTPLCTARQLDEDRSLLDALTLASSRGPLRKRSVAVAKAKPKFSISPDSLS
T6 sequence (Q09429 whole entry): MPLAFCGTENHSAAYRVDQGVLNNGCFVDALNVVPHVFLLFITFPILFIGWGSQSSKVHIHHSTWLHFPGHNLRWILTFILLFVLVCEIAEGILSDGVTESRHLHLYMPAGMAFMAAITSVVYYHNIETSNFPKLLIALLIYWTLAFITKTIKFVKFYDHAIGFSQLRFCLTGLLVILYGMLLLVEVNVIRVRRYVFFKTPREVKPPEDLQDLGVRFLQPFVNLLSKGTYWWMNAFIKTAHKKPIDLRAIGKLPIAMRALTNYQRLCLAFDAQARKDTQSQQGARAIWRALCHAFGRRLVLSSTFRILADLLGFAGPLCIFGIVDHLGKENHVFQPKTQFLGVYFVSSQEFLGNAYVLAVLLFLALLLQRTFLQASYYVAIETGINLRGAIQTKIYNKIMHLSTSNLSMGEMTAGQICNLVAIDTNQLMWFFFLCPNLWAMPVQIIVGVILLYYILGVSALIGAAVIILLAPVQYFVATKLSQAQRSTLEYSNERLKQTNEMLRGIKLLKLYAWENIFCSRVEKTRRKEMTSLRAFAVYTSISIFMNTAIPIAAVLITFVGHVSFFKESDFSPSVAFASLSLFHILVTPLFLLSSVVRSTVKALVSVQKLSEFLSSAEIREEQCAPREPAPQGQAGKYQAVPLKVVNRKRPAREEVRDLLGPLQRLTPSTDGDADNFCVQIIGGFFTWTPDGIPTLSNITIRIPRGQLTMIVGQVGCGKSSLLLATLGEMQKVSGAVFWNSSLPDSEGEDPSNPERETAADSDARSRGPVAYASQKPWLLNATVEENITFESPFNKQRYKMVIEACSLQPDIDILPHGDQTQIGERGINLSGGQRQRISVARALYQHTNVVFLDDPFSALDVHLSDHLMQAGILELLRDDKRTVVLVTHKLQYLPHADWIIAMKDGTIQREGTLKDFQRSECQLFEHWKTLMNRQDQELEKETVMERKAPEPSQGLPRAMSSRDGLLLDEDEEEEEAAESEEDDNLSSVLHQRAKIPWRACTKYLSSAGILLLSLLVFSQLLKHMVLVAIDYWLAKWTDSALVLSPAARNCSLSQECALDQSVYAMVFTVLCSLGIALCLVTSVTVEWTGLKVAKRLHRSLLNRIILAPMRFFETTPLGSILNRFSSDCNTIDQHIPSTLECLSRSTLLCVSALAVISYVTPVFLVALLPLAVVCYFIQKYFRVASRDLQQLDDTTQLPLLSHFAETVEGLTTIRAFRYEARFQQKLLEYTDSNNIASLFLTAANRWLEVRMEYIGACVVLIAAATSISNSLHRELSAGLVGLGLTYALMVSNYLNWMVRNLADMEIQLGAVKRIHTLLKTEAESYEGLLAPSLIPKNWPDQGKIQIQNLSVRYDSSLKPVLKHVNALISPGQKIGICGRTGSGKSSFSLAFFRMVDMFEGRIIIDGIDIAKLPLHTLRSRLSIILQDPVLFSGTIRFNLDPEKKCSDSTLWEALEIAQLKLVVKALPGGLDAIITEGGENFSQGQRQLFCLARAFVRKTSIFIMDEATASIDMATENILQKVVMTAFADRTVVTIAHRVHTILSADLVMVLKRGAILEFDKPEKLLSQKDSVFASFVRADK
T7 sequence (P70673 whole entry): as the sequence (P70673 whole entry) above
T7 sequence (Q09429 whole entry): as the sequence (Q09429 whole entry) above
T4 sequence (P70673 whole entry): as the sequence (P70673 whole entry) above
T4 sequence (Q09429 whole entry): as the sequence (Q09429 whole entry) above
T1 sequence (Q15842 whole entry, the tested form may be a part): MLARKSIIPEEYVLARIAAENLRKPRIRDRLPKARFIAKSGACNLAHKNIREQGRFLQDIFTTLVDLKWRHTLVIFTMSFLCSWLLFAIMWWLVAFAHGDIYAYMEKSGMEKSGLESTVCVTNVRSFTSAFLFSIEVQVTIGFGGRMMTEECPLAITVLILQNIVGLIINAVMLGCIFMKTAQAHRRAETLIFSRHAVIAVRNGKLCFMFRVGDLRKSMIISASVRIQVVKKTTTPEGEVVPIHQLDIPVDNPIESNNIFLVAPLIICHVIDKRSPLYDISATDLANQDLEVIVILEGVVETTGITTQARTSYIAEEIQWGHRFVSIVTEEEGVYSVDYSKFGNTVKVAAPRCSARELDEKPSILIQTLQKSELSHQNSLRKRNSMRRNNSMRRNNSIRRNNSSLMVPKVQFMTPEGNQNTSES
T1 sequence (O60706 1-1549 isoform O60706-2): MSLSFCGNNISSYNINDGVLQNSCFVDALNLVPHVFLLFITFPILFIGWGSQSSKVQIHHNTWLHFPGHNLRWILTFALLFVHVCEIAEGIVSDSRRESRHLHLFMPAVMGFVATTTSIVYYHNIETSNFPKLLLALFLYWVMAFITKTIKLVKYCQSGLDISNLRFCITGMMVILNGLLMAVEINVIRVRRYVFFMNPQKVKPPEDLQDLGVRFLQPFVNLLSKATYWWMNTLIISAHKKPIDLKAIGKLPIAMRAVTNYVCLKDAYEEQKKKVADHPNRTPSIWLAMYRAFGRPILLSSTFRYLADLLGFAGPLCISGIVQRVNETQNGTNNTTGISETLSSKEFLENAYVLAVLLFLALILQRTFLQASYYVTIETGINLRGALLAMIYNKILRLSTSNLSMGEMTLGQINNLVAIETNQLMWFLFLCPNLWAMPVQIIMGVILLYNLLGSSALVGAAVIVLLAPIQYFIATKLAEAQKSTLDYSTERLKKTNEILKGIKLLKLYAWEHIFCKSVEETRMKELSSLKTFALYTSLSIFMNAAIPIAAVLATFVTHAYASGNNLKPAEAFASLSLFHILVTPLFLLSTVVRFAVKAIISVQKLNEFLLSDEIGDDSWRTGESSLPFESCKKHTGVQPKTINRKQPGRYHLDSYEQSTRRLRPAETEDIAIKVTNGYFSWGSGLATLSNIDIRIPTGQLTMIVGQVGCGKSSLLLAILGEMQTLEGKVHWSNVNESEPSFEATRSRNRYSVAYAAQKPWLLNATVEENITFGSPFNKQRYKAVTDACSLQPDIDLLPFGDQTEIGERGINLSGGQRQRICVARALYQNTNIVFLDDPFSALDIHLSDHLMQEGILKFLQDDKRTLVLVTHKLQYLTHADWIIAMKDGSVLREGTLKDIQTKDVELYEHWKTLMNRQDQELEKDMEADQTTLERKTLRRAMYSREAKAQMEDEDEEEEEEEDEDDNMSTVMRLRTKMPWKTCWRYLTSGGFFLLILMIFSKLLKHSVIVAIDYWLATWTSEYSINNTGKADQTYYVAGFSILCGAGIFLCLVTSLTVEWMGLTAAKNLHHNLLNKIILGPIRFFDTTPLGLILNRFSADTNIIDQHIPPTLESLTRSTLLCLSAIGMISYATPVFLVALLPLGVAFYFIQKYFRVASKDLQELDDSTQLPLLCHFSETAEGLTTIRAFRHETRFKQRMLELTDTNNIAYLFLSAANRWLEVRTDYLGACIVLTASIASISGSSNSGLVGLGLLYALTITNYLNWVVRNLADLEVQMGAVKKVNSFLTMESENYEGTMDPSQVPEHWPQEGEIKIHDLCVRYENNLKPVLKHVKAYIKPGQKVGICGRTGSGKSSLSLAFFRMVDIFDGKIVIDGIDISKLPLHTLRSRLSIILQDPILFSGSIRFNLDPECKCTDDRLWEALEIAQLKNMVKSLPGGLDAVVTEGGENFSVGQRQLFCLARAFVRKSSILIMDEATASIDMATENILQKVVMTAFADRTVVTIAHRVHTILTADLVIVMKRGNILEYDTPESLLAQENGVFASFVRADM
Sequence of vascular KATP channels (Kir6.1SRU2B) (Q15842 whole entry): as the sequence (Q15842 whole entry, the tested form may be a part) above
Sequence of vascular KATP channels (Kir6.1SRU2B) (O60706 1-1549 isoform O60706-2): as the sequence (O60706 1-1549 isoform O60706-2) above

CC(C)NC(C)(C)C(C)C [Ipt, Iptakalim]
effect on whole-cell current of Kir6.1/SUR2B [1]: opens cardiovascular types of KATP channels
effect on whole-cell current of Kir6.2/SUR2A [2]: opens cardiovascular types of KATP channels
concentration at which Ipt mainly opens vascular KATP channels [3]: < 10 µM
concentration at which Ipt weakly opens cardiac KATP channels [4]: < 10 µM
normalized NPo value [5]: 0.50±0.02
effect on β-cell KATP channel-mediated whole-cell currents [6]: reduced these β-cell KATP channel-mediated currents
effect on whole-cell current of Kir6.2/SUR1 [7]: blocks β-cell-type KATP channels
effect on single channel activities opened by ATP free solution [8]: inhibited these single channel activities
insulin secretion after bath application [9]: 34.5±1.8 pg/islet/min
concentration at which Ipt blocks neuronal type and pancreatic type of KATP channels [10]: > 30 µM

CC1=Nc2ccc(Cl)cc2S(=O)(=O)N1 [dizoxide]
effect of KATP channel opener on membrane potential ([11]; 300 μM (FIG. 3B legend)): hyperpolarized membrane potential

NCCc1ccc(O)c(O)c1 [dopamine]
membrane potential hyperpolarization by dopamine ([12]; 10 μM dopamine bath-application, 10 neurons, p<0.01): 10.5±1.1 mV

COc1cc2c(cc1O)[C@@H]1Cc3ccc(O)c(OC)c3CN1CC2 [l-SPD, l-stepholidine]
altered membrane potential (depolarization) on rotenone-opened KATP channels, analog comparison [13]: 8.4±1.4 mV

COc1cc2c(cc1OC)[C@@H]1Cc3ccc(OC)c(OC)c3CN1CC2 [l-THP, l-tetrahydropalmatine]
altered membrane potential (depolarization) on rotenone-opened KATP channels, analog comparison [13]: 3.4±0.5 mV

C=C(C)[C@H]1Cc2c(ccc3c2O[C@@H]2COc4cc(OC)c(OC)cc4[C@@H]2C3=O)O1 [rotenone]
membrane potential after perfusion of rotenone ([11]; 1 μM rotenone for 1-3 min, averaged resting membrane potential −46.1±0.9 mV, 30 neurons, p<0.001): −61.1±0.9 mV
rotenone-induced outward current amplitude ([14]; in the presence of sulpiride): 125.8±37.1 pA

CCN1CCCC1CNC(=O)c1cc(S(N)(=O)=O)ccc1OC (centres unmarked) [sulpiride]
effect of D2 receptor antagonist alone on resting membrane potential ([11]; exposure alone, neuronal firing rate was increased): did not clearly alter resting membrane potential

CCCCNC(=O)NS(=O)(=O)c1ccc(C)cc1 [tolbutamide]
membrane potential after exposure to substance alone ([11]; 100 μM, before: THB −46.5±0.9 (n=7), tolbutamide −44.4±1.6 (n=5)): −44.1±1.8 mV
membrane potential after substance during persistent perfusion of rotenone ([13]; 1 μM rotenone, before: THB −61.7±1.3 (n=11), tolbutamide −61.6±1.2 (n=21), p<0.01): −52.5±1.1 mV
altered membrane potential in the presence of rotenone ([13]; 1 μM substance): 0.2±0.1 mV
altered membrane potential in the presence of rotenone ([13]; 10 μM substance): 4.4±0.3 mV
altered membrane potential in the presence of rotenone ([13]; 100 μM substance): 9.1±0.5 mV
Hill coefficient of concentration-effect relationship curve ([13]; membrane depolarization in the presence of rotenone): 2.1
IC50 ([13]; membrane depolarization in the presence of rotenone, read-out: IC50 of concentration-effect relationship curve (block of KATP channels)): 10.4 µM
rotenone-induced outward current amplitude after addition of substance ([14]; 100 mM substance as printed, sulpiride present, from 125.8±37.1 pA, p<0.01): 45.8±23.7 pA
altered membrane potential on co-application with dopamine ([12]; difference THB vs tolbutamide p>0.05): 8.5±2.2 mV
